Assay results reported in paper PMC9243654 (Frontiers in Nutrition, 2022).
Read-outs that look alike come from different tables or passages of the source. Values belong to the molecule of their own block, whether it stands above or below them.

Columns and labels:
[1] = in vitro
Description: The PAMPA-BBB assay was conducted according to the methodology followed by Di et al., with some modifications as described below ([15]). First, the BBB solution was prepared by dissolving 8 mg of PBL and 4 mg of cholesterol in 600 μl of n-dodecane. The initial donor solution was prepared by mixing 1 ml of extract (10 mg ml^−1 in EtOH) with 1 ml of buffer (PBS, pH = 7.4, 10 mM). The filter membrane of the donor plate was carefully coated with 5 μl of BBB solution. The acceptor plate was filled with 350 μl of buffer, and the donor plate was carefully assembled over the acceptor plate like a “sandwich.” Finally, the donor plate was filled with 350 μl of donor solution, covered, and incubated for 4 h at 37°C in the dark. After incubation time, 300 μl of the solution was taken from both plates, transferred to separate vials, and dried in the SpeedVac system at 40°C and 13 mbar pressure. Dried acceptor and donor solution were dissolved in 50 μl of pure EtOH before subjecting to UHPLC-Q-TOF-MS analysis. Permeability across in vitro BBB of the bioactive compound was measured according to Equation (1) ([25]), with some modifications in concentration rates.
(1) Pe=-ln[1-CA(t)/Ce]/A^*(1/VD+1/VA)^*t
Cequilibrium was calculated according to the following equation ([2]):
(2) Cequilibrium=[CD(t)*VD+CA(t)*VA]/(VD+VA)

[2] = ref PubChem database, cited from earlier work
[3] = compounds of RSFE extract, octanol-water partition coefficient
[4] = compounds identified in LPLE extract
[5] = PAMPA, pH 7.4, PAMPA-BBB log Pe (cm s−1)
[6] = PAMPA, pH 7.4, PAMPA-BBB log Pe, compound within LPLE (Nothofagus pumilio, lenga PLE extract), N.D = not detected in acceptor

Compound: CC(C)c1cc2c(c(O)c1O)[C@@]13CCCC(C)(C)[C@@H]1C[C@@H]2OC3=O [Carnosol]
Papp at 4 h ([1]; PAMPA, pH 7.4, PAMPA-BBB log Pe (cm s−1), compound within RSFE extract, 4 h, 37°C, PBS pH 7.4): 50.1 ×10⁻⁶ cm/s | Cross BBB potential ([1]; compound within RSFE extract): +++ (log Pe > −4.5) | Log P [2, 3]: 4.4

Compound: O.Oc1cc(O)c2c(c1)O[C@H](c1ccc(O)c(O)c1)[C@@H](O)C2 [Catechin]
Cross BBB potential ([1]; PAMPA): - | Log P [2, 4]: 0.4 | Log P ([2]; compounds of ASFE extract): 0.4

Compound: COc1cc(/C=C/C=O)ccc1O [Coniferaldehyde]
PAMPA-BBB log Pe (cm s−1) ([1]; PAMPA, pH 7.4): −4.24 cm s−1 | PAMPA-BBB log Pe ([1]; compound within LPLE (Nothofagus pumilio, lenga PLE extract), N.D = not detected in acceptor): −4.65 cm s−1 | Log P [2, 4]: 1.5 | Log P ([2]; compounds of ASFE extract): 1.5

Cross BBB potential ([1]; PAMPA): ++ | Papp at 4 h [1, 5]: 6.03 ×10⁻⁶ cm/s | Papp at 4 h [1, 6]: 8.51 ×10⁻⁶ cm/s
Compound: C[C@H]1[C@H](C)CC[C@]2(C(=O)O)CC[C@]3(C)C(=CC[C@@H]4[C@@]5(C)C[C@@H](O)[C@H](O)C(C)(C)[C@@H]5CC[C@]43C)[C@H]12 [Corosolic acid]
Log P [2, 4]: 6.4

Cross BBB potential ([1]; compound within ASFE extract): - | Cross BBB potential ([1]; compound within LPLE (Nothofagus pumilio, lenga PLE extract), classes based on Könczöl et al.): -
Compound: O=C(/C=C/c1ccc(O)cc1)O[C@@H](C(=O)O)[C@@H](O)C(=O)O [Coutaric acid]
Log P [2, 4]: 0.4 | Log P ([2]; compounds of ASFE extract): 0.4

Compound: COc1ccc(-c2cc(=O)c3c(O)cc(O)cc3o2)cc1O [Diosmetin]
Cross BBB potential ([1]; PAMPA): ++ (key: -: not detected in acceptor; +: log Pe > −6.5; ++: log Pe > −5.5; +++: log Pe > −4.5) | Papp [1, 5]: 31.6 ×10⁻⁶ cm/s

Compound: O=c1oc2c(O)c(O)cc3c(=O)oc4c(O)c(O)cc1c4c23 [Ellagic acid]
Cross BBB potential ([1]; PAMPA): -

Compound: O=C1C[C@@H](c2ccc(O)c(O)c2)Oc2cc(O)cc(O)c21 [Eriodictyol]
Log P [2, 3]: 2.0

Compound: CCOC(=O)/C=C/c1ccc(O)c(O)c1 [Ethyl caffeate]
Papp at 4 h ([1]; PAMPA, pH 7.4, PAMPA-BBB log Pe (cm s−1), compound within T33 extract, 4 h, 37°C, PBS pH 7.4): 18.6 ×10⁻⁶ cm/s | Cross BBB potential ([1]; compound within T33 extract): ++ (log Pe > −5.5)

Compound: COc1cc(/C=C/C(=O)O)ccc1O [Ferulic acid]
Cross BBB potential ([1]; PAMPA): ++ (key: -: not detected in acceptor; +: log Pe > −6.5; ++: log Pe > −5.5; +++: log Pe > −4.5) | PAMPA-BBB log Pe (cm s−1) ([1]; PAMPA, pH 7.4): −4.68 cm s−1 | Cross BBB potential ([1]; compound within ASFE extract): -

Papp at 4 h [1, 6]: 69.2 ×10⁻⁶ cm/s
Compound: O=C(O)c1cc(O)c(O)c(O)c1 [Gallic acid]

Compound: COc1cc(O)c2c(=O)cc(-c3ccc(O)cc3)oc2c1 [Genkwanin]
Papp at 4 h [1, 5]: 9.55 ×10⁻⁶ cm/s

Compound: O=c1c(O[C@@H]2O[C@H](CO)[C@@H](O)[C@H](O)[C@H]2O)c(-c2ccc(O)c(O)c2)oc2cc(O)cc(O)c12 [Isoquercitrin]
Cross BBB potential ([1]; PAMPA): -

Compound: O=c1cc(-c2ccc(O)c(O)c2)oc2cc(O)cc(O)c12 [Luteolin]
Papp at 4 h [1, 5]: 38 ×10⁻⁶ cm/s

Compound: O=c1c(O)c(-c2cc(O)c(O)c(O)c2)oc2cc(O)cc(O)c12 [Myricetin]
Cross BBB potential ([1]; PAMPA): -

Compound: Oc1cc(O)c2c(c1)O[C@H](c1ccc(O)c(O)c1)[C@H](O)[C@H]2c1c(O)cc(O)c2c1O[C@H](c1ccc(O)c(O)c1)[C@H](O)C2 [Procyanidin B2]
Cross BBB potential ([1]; PAMPA): -

Compound: O=C(/C=C/c1ccc(O)c(O)c1)O[C@H](Cc1ccc(O)c(O)c1)C(=O)O [Rosmarinic acid]
Log P [2, 3]: 2.4 | Log P ([2]; compounds of T33 extract): 2.4

Compound: C[C@@H]1O[C@@H](OC[C@H]2O[C@@H](Oc3c(-c4ccc(O)c(O)c4)oc4cc(O)cc(O)c4c3=O)[C@H](O)[C@@H](O)[C@@H]2O)[C@H](O)[C@H](O)[C@H]1O [Rutin]
Cross BBB potential ([1]; PAMPA): -

Papp at 4 h [1, 5]: 75.9 ×10⁻⁶ cm/s | Papp at 4 h [1, 6]: 28.2 ×10⁻⁶ cm/s
Compound: COc1cc2ccc(=O)oc2cc1O [Scopoletin]

Compound: O=c1ccc2ccc(O)cc2o1 [Umbelliferone]
Papp at 4 h ([1]; PAMPA, pH 7.4): 38 ×10⁻⁶ cm/s | Cross BBB potential ([1]; compound within RSFE extract): +++ (log Pe > −4.5)

Compound: COc1cc(C(=O)O)ccc1O[C@@H]1O[C@H](CO)[C@@H](O)[C@H](O)[C@H]1O [Vanillic acid-O-hexoside]
Cross BBB potential ([1]; compound within RSFE extract): +++ (log Pe > −4.5) | PAMPA-BBB log Pe (cm s−1) ([1]; compound within RSFE extract, 4 h, 37°C, PBS pH 7.4): −4.19 cm s−1

Papp at 4 h [1, 5]: 70.8 ×10⁻⁶ cm/s | Papp at 4 h [1, 6]: 33.1 ×10⁻⁶ cm/s
Compound: COc1cc(C=O)ccc1O [Vanillin]
